According to patent publication US20240279215A1 (Cytokinetics, Incorporated, priority 2022, published 2024):

The molecules below were run against human NAMPT (Homo sapiens (Human), UniProt P43490) (assay: NMN fluorescence biochemical assay (human recombinant NAMPT enzyme assay)).
Chain of human NAMPT (P43490 whole entry): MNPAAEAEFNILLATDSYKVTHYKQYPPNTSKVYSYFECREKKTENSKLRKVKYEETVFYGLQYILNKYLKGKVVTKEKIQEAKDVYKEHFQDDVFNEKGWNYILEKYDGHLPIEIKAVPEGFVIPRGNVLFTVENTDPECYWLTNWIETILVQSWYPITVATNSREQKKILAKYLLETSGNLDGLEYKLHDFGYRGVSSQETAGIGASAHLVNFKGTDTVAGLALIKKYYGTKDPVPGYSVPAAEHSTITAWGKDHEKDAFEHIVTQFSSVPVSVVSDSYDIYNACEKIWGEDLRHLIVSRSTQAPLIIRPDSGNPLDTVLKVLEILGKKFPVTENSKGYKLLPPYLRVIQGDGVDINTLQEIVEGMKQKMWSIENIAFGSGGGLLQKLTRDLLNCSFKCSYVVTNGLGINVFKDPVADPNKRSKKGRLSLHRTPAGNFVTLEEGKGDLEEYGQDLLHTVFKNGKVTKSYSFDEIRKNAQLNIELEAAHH
How it was run: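 Activation of recombinant human NAMPT (6 nM) was tested with 2.5 mM ATP, 20 μM PRPP and 150 μM nicotinamide in 50 mM HEPES pH 7.2 for 60 min at ambient temperature. NMN was derivatized with acetophenone/KOH/formic acid and read by fluorescence (355/460 nm) after 40 min.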
For `Cc1ocnc1C(=O)NCc1ccc(NC(=O)OCc2ccc(Cl)cc2)cc1` [Compound 321, (4-chlorophenyl)methyl N-(4-{[(5-methyl-1,3-oxazol-4-yl)formamido]methyl}phenyl)carbamate], the “AC1.4 Human” value was 6.86 µM and the EC50 was 55.7 µM. `Cc1nnc(Cc2ccc(NC(=O)OCc3ccc(Cl)cc3)cc2)o1` [Compound 322, (4-chlorophenyl)methyl N-{4-[(5-methyl-1,3,4-oxadiazol-2-yl)methyl]phenyl}carbamate] was tested, and the “AC1.4 Human” value was 7.23 µM and the EC50 was 39.3 µM. For `Cc1ccc(CNC(=O)Cc2ccc(NC(=O)OCc3ccc(Cl)cc3)cc2)cn1` [Compound 323, (4-chlorophenyl)methyl N-[4-({[(6-methylpyridin-3-yl)methyl]carbamoyl}methyl)phenyl]carbamate], the “AC1.4 Human” value was 7.41 µM and the EC50 was 13.3 µM. `COc1ccc(COC(=O)Nc2ccc(CN3CC(S(C)(=O)=O)C3)cc2)cc1` [Compound 324, (4-methoxyphenyl)methyl N-{4-[(3-methanesulfonylazetidin-1-yl)methyl]phenyl}carbamate] was tested, and the “AC1.4 Human” value was 7.47 µM and the EC50 was 50.9 µM. In the case of `COc1ccc(COC(=O)Nc2ccc(CN3CCN(C)C(=O)C3)cc2)cc1` [Compound 325, (4-methoxyphenyl)methyl N-{4-[(4-methyl-3-oxopiperazin-1-yl)methyl]phenyl}carbamate], the “AC1.4 Human” value is reported as 7.87 µM and the EC50 is reported as 51.1 µM. With `O=C(Nc1ccc(Cc2ccncc2)cc1)OCc1ccnnc1` [Compound 326, pyridazin-4-ylmethyl (4-(pyridin-4-ylmethyl)phenyl)carbamate] the “AC1.4 Human” value was 8.05 µM and the EC50 was 31.9 µM. With `O=C(Nc1ccc(CNC(=O)c2ccnn2C2CCC2)cc1)OCc1ccc(Cl)cc1` [Compound 327, (4-chlorophenyl)methyl N-(4-{[(2-cyclobutylpyrazol-3-yl)formamido]methyl}phenyl)carbamate] the “AC1.4 Human” value was 8.21 µM and the EC50 was 21.1 µM. For `Cc1ccc(Cc2ccc(NC(=O)OCc3ccc(C(F)F)cc3)cc2)cn1` [Compound 328, (4-(difluoro-13-methyl)phenyl)methyl (4-((6-methylpyridin-3-yl)methyl)phenyl)carbamate], the “AC1.4 Human” value was 8.56 µM and the EC50 was 36.3 µM. In the case of `CC(O)(c1ccncc1)c1ccc(NC(=O)OCc2cncs2)cc1` (centres unmarked) [Compound 329, thiazol-5-ylmethyl (4-(1-hydroxy-1-(pyridin-4-yl)ethyl)phenyl)carbamate], the “AC1.4 Human” value is reported as 8.65 µM and the EC50 is reported as 33.6 µM. In the case of `O=C(Cc1cnoc1)NCc1ccc(NC(=O)OCc2ccc(Cl)cc2)cc1` [Compound 330, (4-chlorophenyl)methyl N-(4-{[2-(1,2-oxazol-4-yl)acetamido]methyl}phenyl)carbamate], the “AC1.4 Human” value is reported as 8.66 µM and the EC50 is reported as 46.3 µM. `Cc1ccc(Cc2ccc(NC(=O)OCc3ccc(F)cc3)cc2)cn1` [Compound 331, 4-fluorobenzyl (4-((6-methylpyridin-3-yl)methyl)phenyl)carbamate] was tested, and the “AC1.4 Human” value was 8.67 µM and the EC50 was 11.9 µM. For `CN1CCN(C(=O)Cc2ccc(NC(=O)OCc3ccc(Cl)cc3)cc2)CC1=O` [Compound 332, (4-chlorophenyl)methyl N-{4-[2-(4-methyl-3-oxopiperazin-1-yl)-2-oxoethyl]phenyl}carbamate], the “AC1.4 Human” value was 8.89 µM and the EC50 was 50.6 µM. `O=C(Nc1ccc(Cc2ccncc2)cc1)OCc1cnoc1` [Compound 333, isoxazol-4-ylmethyl (4-(pyridin-4-ylmethyl)phenyl)carbamate] was tested, and the “AC1.4 Human” value was 9.58 µM and the EC50 was 38.6 µM. With `O=C(Cn1cccn1)NCc1ccc(NC(=O)OCc2ccc(Cl)cc2)cc1` [Compound 334, (4-chlorophenyl)methyl N-(4-{[2-(pyrazol-1-yl)acetamido]methyl}phenyl)carbamate] the “AC1.4 Human” value was 9.87 µM and the EC50 was 9.33 µM. `O=C(Nc1ccc(Cc2nccs2)cc1)OCc1ccc(Cl)cc1` [Compound 336, 4-chlorobenzyl (4-(thiazol-2-ylmethyl)phenyl)carbamate] was tested, and the “AC1.4 Human” value was 10.07 µM and the EC50 was 24.3 µM. In the case of `CN([C@@H]1CCOC1)S(=O)(=O)c1ccc(NC(=O)OCc2ccc(Cl)cc2)cc1` [Compound 337, 4-chlorobenzyl (R)-(4-(N-methyl-N-(tetrahydrofuran-3-yl)sulfamoyl)phenyl)carbamate], the “AC1.4 Human” value is reported as 10.15 µM and the EC50 is reported as 26.4 µM. `O=C(Cc1ccc(NC(=O)OCc2ccc(Cl)cc2)cc1)N[C@H]1CC[C@H](OC(F)(F)F)CC1` [Compound 338, (4-chlorophenyl)methyl N-[4-({[(1r,4r)-4-(trifluoromethoxy)cyclohexyl]carbamoyl}methyl)phenyl]carbamate] was tested, and the “AC1.4 Human” value was 10.44 µM and the EC50 was 18.4 µM. `O=C(Cc1ccc(NC(=O)OCc2ccc(Cl)cc2)cc1)NC1COC1` [Compound 339, 4-chlorobenzyl (4-(2-(oxetan-3-ylamino)-2-oxoethyl)phenyl)carbamate] was tested, and the “AC1.4 Human” value was 10.65 µM and the EC50 was 45.5 µM. In the case of `Cc1ocnc1C(=O)N(C)Cc1ccc(NC(=O)OCc2ccc(Cl)cc2)cc1` [Compound 340, (4-chlorophenyl)methyl N-(4-{[N-methyl-1-(5-methyl-1,3-oxazol-4-yl)formamido]methyl}phenyl)carbamate], the “AC1.4 Human” value is reported as 10.65 µM and the EC50 is reported as 45.6 µM. With `COc1ccc(COC(=O)Nc2ccc([C@H](C)C(=O)N3CCC[C@H]3CO)cc2)cc1` [Compound 341] the “AC1.4 Human” value was 11.08 µM and the EC50 was 55.6 µM. `O=C(Nc1ccc(CNC(=O)c2ocnc2C2CC2)cc1)OCc1ccc(Cl)cc1` [Compound 343, (4-chlorophenyl)methyl N-(4-{[(4-cyclopropyl-1,3-oxazol-5-yl)formamido]methyl}phenyl)carbamate] was tested, and the “AC1.4 Human” value was 11.85 µM and the EC50 was 21.9 µM. In the case of `Cc1noc(Cc2ccc(NC(=O)OCc3ccc(Cl)cc3)cc2)n1` [Compound 344, (4-chlorophenyl)methyl N-{4-[(3-methyl-1,2,4-oxadiazol-5-yl)methyl]phenyl}carbamate], the “AC1.4 Human” value is reported as 13.04 µM and the EC50 is reported as 34 µM. With `Cn1nc(C(F)F)cc1C(=O)NCc1ccc(NC(=O)OCc2ccc(Cl)cc2)cc1` [Compound 345, (4-chlorophenyl)methyl N-[4-({[5-(difluoromethyl)-2-methylpyrazol-3-yl]formamido}methyl)phenyl]carbamate] the “AC1.4 Human” value was 13.49 µM and the EC50 was 20.3 µM. `O=C1CN(C2COC2)[C@@H](c2ccc(NC(=O)OCc3ccc(Cl)cc3)cc2)CN1` [Compound 346, 4-chlorobenzyl (S)-(4-(1-(oxetan-3-yl)-5-oxopiperazin-2-yl)phenyl)carbamate] was tested, and the “AC1.4 Human” value was 13.52 µM and the EC50 was 45.3 µM. In the case of `CCc1ncoc1C(=O)NCc1ccc(NC(=O)OCc2ccc(Cl)cc2)cc1` [Compound 347, (4-chlorophenyl)methyl N-(4-{[(4-ethyl-1,3-oxazol-5-yl)formamido]methyl}phenyl)carbamate], the “AC1.4 Human” value is reported as 13.92 µM and the EC50 is reported as 34.8 µM. `COCCN1CCC(c2ccc(NC(=O)OCc3cnco3)cc2)CC1` [Compound 348, 1,3-oxazol-5-ylmethyl N-{4-[1-(2-methoxyethyl)piperidin-4-yl]phenyl}carbamate] was tested, and the “AC1.4 Human” value was 14.47 µM and the EC50 was 35.9 µM. For `O=C(Nc1ccc(Cc2ccncc2)cc1)OCc1ccncn1` [Compound 349, pyrimidin-4-ylmethyl (4-(pyridin-4-ylmethyl)phenyl)carbamate], the “AC1.4 Human” value was 15.55 µM and the EC50 was 26 µM. For `O=C(Nc1ccc(Cc2ccns2)cc1)OCc1ccc(Cl)cc1` [Compound 350, 4-chlorobenzyl (4-(isothiazol-5-ylmethyl)phenyl)carbamate], the “AC1.4 Human” value was 20.27 µM and the EC50 was 44.4 µM. `O=C(Nc1ccc(Cc2cncs2)cc1)OCc1ccc(Cl)cc1` [Compound 351, 4-chlorobenzyl (4-(thiazol-5-ylmethyl)phenyl)carbamate] was tested, and the “AC1.4 Human” value was 22.18 µM and the EC50 was 37.3 µM. `CN(C1COC1)S(=O)(=O)c1ccc(NC(=O)OCc2ccc(Cl)cc2)cc1` [Compound 352, 4-chlorobenzyl (4-(N-methyl-N-(oxetan-3-yl)sulfamoyl)phenyl)carbamate] was tested, and the “AC1.4 Human” value was 22.88 µM and the EC50 was 46.3 µM. With `O=C(Nc1ccc(Cc2cocn2)cc1)OCc1ccc(Cl)cc1` [Compound 353, 4-chlorobenzyl (4-(oxazol-4-ylmethyl)phenyl)] the “AC1.4 Human” value was 23.63 µM and the EC50 was 24.3 µM. For `O=C(Nc1ccc(COC2CN(C3COC3)C2)cc1)OCc1ccc(Cl)cc1` [Compound 354, 4-chlorobenzyl (4-(((1-(oxetan-3-yl)azetidin-3-yl)oxy)methyl)phenyl)carbamate], the “AC1.4 Human” value was 23.64 µM and the EC50 was 38.8 µM. With `Cn1cc(COC(=O)Nc2ccc(Cc3ccncc3)cc2)cn1` [Compound 355, (1-methyl-1H-pyrazol-4-yl)methyl (4-(pyridin-4-ylmethyl)phenyl)carbamate] the “AC1.4 Human” value was 25.86 µM and the EC50 was 4.96 µM. `Cc1ccc(S(=O)(=O)NCc2ccc(NC(=O)OCc3ccc(Cl)cc3)cc2)cn1` [Compound 356, (4-chlorophenyl)methyl N-{4-[(6-methylpyridine-3-sulfonamido)methyl]phenyl}carbamate] was tested, and the “AC1.4 Human” value was 29.04 µM and the EC50 was 18.2 µM. In the case of `CC(C)C(=O)N1CC2(CC(c3ccc(NC(=O)OCc4cnco4)cc3)C2)C1` [Compound 357, oxazol-5-ylmethyl (4-(2-isobutyryl-2-azaspiro[3.3]heptan-6-yl)phenyl)carbamate], the “AC1.4 Human” value is reported as 1.09 µM and the EC50 is reported as 39.9 µM. `CC(=O)N1CC2(CC(c3ccc(NC(=O)OCc4cnco4)cc3)C2)C1` [Compound 358, oxazol-5-ylmethyl (4-(2-acetyl-2-azaspiro[3.3]heptan-6-yl)phenyl)carbamate] was tested, and the “AC1.4 Human” value was 0.25 µM and the EC50 was 28.9 µM. `CS(=O)(=O)N1CCC[C@H](c2ccc(NC(=O)OCc3cnco3)cc2)C1` [Compound 365, oxazol-5-ylmethyl (R)-(4-(1-(methylsulfonyl)piperidin-3-yl)phenyl)carbamate] was tested, and the “AC1.4 Human” value was 0.33 µM and the EC50 was 38.6 µM.
